# Patent publication US9217163B2 (priority 2007, dated 2015)
# Read-outs that look alike come from different tables or passages of the source.
# How the values were obtained:
# [1] = tested on: Clostridium beijerinckii ATCC 10132; details: butanol 1.5% to 3.5%, 37° C., 144 h
# Protocol: The tolerance was tested in both, the un-optimized AnS medium and optimized AnS medium. The bottles were inoculated with Clostridium beijerinckii ATCC 10132 After inoculation, the medium was incubated at 37° C. for 144 h and the OD at 600 nm was monitored at a regular interval of 12 h.
# [2] = tested on: biological systems; details: Jones and Wood, 1986; cited from earlier work
structure (smiles),measurement,setting,value
"CCCCO [butanol, n-butanol]","butanol concentration tolerated (growth, OD 600 nm)",[1]; optimized AnS medium,≤ 3.5%
same,"butanol concentration tolerated (growth, OD 600 nm)",[1]; un-optimized AnS medium,up to 3.0%
same,concentration at which butanol is highly toxic to biological systems,[2],2%
